In brackets after ≈: the same amount, converted by molar mass. Where two headings read alike, the source gives them in different places.
Key:
[1] = test system: Candida albicans ATCC 32354; assay: MIC, two-fold agar dilution, C. albicans ATCC 32354; format: cell-based; details: ATCC32354, YMA pH 7.0, 28° C., 40 hours
Protocol: (§1) Minimum inhibitory concentrations (MICs) of nine 4'-N-substituted pradimicin derivatives were determined by two-fold agar dilution method on phosphate-buffered yeast morphology agar (YMA, pH 7.0, Difco Laboratories). A 5-μl of fungal cell suspension containing 2×10^6 cells/ml (2×10^7 cells/ml for Trichophyton mentagrophytes) were spotted on the surface of the agar plates containing test compound. MICs were recorded after 40-hour incubation at 28° C. except for T. mentagrophytes, which required 60-hour incubation to produce visually evaluable growth on the drug-free control plates and were defined as the lowest antibiotic concentrations showing no growth or less than five discrete colonies per spot.
(§2) Medium: yeast morphology agar + 1/15 M phosphate buffer (pH 7.0)
(§3) Incubation conditions: 28° C., 40 hours (C. albicans ATCC 38247 & T.
(§4) Medium: Yeast morphology agar + 1/15 phosphate buffer (pH 7.0).

[2] = test system: Candida albicans A9540; assay: animal or person; format: in vivo, male ICR mice infected with Candida albicans A9540; details: Candida albicans, A9540, 480 h, C. albicans, mice; for responders at 6.3 mg/kg: 6.3 mg/kg iv; for responders at 6.3 mg/kg / responders at 12.5 mg/kg / responders at 25 mg/kg / responders at 50 mg/kg: 20th day post-infection, read-out: S/T (No. of survivors/tested) (converted); for responders at 12.5 mg/kg: 12.5 mg/kg iv; for responders at 25 mg/kg: 25 mg/kg iv; for responders at 50 mg/kg: 50 mg/kg iv; for ED50: Table 2, iv, 95% confidence limits in parentheses, read-out: PD50 (50% protection dose)
Protocol: (§5) The in vivo therapeutic efficacies of seven 4'-N-substituted pradimicin derivatives, KHM-1, KHM-2, KHM-3, KHM-4, KHM-5, KHM-6 and KHM-7 were evaluated in the mouse infected with Candida albicans A9540 and Aspergillus fumigatusIAM 2034. Groups of five specific-pathogen-free male ICR mice weighing 20-25 g at each dose level were intravenously infected with approximately 10 times the 50% lethal dose of C. albicans A9540 (1×10^6 cells/mouse) or A. fumigatus IAM 2034 (1×10^7 cells/mouse). Immediately after the fungal infection, test compounds dissolved with 10% DMSO in distilled water were intravenously given to the mouse at the dosed volume of 0.1 ml/10 g of body weight. […] Untreated control animals died 7 to 13 days post-infection.

[3] = test system: Trichophyton mentagrophytes #4329; assay: MIC, two-fold agar dilution, T. mentagrophytes #4329; format: cell-based
Protocol: as §1, §2, §3
(§6) mentagrophytes #4329: 28° C., 60 hours).
as §4

[4] = test system: Cryptococcus neoformans D49; assay: MIC, two-fold agar dilution, C. neoformans D49; format: cell-based; details: YMA pH 7.0, 28° C., 40 hours
Protocol: as §1, §2, §3, §4

[5] = test system: Candida albicans 83-2-14; assay: MIC, two-fold agar dilution, C. albicans 83-2-14; format: cell-based; details: 83214, YMA pH 7.0, 28° C., 40 hours
Protocol: as §1, §2, §3, §4

[6] = test system: Cryptococcus neoformans IAM 4514; assay: MIC, two-fold agar dilution, C. neoformans IAM 4514; format: cell-based; details: IAM4514
Protocol: as §1, §2, §3, §4

[7] = test system: Aspergillus fumigatus IAM 2034; assay: Therapeutic efficacy in Aspergillus fumigatus systemic infection in mice; format: in vivo, male ICR mice infected with Aspergillus fumigatus IAM 2034; details: IAM2034, 480 h; for responders at 6.3 mg/kg: 6.3 mg/kg iv; for responders at 6.3 mg/kg / responders at 12.5 mg/kg / responders at 25 mg/kg / responders at 50 mg/kg: 20th day post-infection, read-out: S/T (No. of survivors/tested) (converted); for responders at 12.5 mg/kg: 12.5 mg/kg iv; for responders at 25 mg/kg: 25 mg/kg iv; for responders at 50 mg/kg: 50 mg/kg iv
Protocol: as §5

[8] = Water solubility at neutral pH in PBS containing Ca^2+/Mg^2+; format: physicochemical; details: pbs with ca2+/mg2+; Table 3; water-solubility at neutral pH in phosphate buffered saline containing Ca^2+/Mg^2+
Protocol: The compounds of the invention have good water solubility. Typically, the water solubility is greater than 10 mg/ml when measured at neutral pH in PBS containing Ca^2+ /Mg^2+, preferably greater than 20 mg/ml.
^2) Water-solubility at neutral pH in phosphate buffered saline
containing Ca^2+ /Mg^2+.

[9] = test system: Candida tropicalis IFO 10241; assay: MIC, two-fold agar dilution, C. tropicalis IFO 10241; format: cell-based; details: IFO10241, YMA pH 7.0, 28° C., 40 hours
Protocol: as §1, §2, §3, §4

[10] = test system: Candida tropicalis 85-8; assay: MIC, two-fold agar dilution, C. tropicalis 85-8; format: cell-based; details: 858, YMA pH 7.0, 28° C., 40 hours
Protocol: as §1, §2, §3, §4

[11] = test system: Saccharomyces cerevisiae ATCC 9763; assay: MIC, two-fold agar dilution, S. cerevisiae ATCC 9763; format: cell-based; details: ATCC9763, YMA pH 7.0, 28° C., 40 hours
Protocol: as §1, §2, §3, §4

[12] = test system: Candida albicans ATCC 38247; assay: MIC, two-fold agar dilution, C. albicans ATCC 38247; format: cell-based; details: ATCC38247, YMA pH 7.0, 28° C., 60 hours (table footnote)
Protocol: as §1, §2, §3, §6, §4

[13] = test system: Candida albicans IAM 4888; assay: MIC, two-fold agar dilution, C. albicans IAM 4888; format: cell-based; details: IAM4888, YMA pH 7.0, 28° C., 40 hours
Protocol: as §1, §2, §3, §4

[14] = test system: Candida albicans A9540; assay: MIC, two-fold agar dilution, C. albicans A9540; format: cell-based
Protocol: as §1, §2, §3, §4

[15] = test system: Aspergillus fumigatus IAM 2034; assay: MIC, two-fold agar dilution, A. fumigatus IAM 2034; format: cell-based; details: IAM2034
Protocol: as §1, §2, §3, §4

[16] = Table 3, Trichophyton mentagrophytes #4329, YMA, read-out: MIC TM-4
[17] = Trichophyton mentagrophytes #4329, YMA pH 7.0, 28° C., 60 hours, read-out: MIC
[18] = Cryptococcus neoformans IAM 4514, YMA pH 7.0, 28° C., 40 hours, read-out: MIC
[19] = Table 3, Cryptococcus neoformans IAM 4514, YMA, read-out: MIC Cn-2
[20] = Aspergillus fumigatus, A. fumigatus, mice
[21] = Aspergillus fumigatus, Table 2, A. fumigatus, mice, iv, 95% confidence limits in parentheses, read-out: PD50 (50% protection dose)
[22] = Candida albicans A9540, YMA pH 7.0, 28° C., 40 hours, read-out: MIC
[23] = Table 3, Candida albicans A9540, YMA, read-out: MIC Ca-4
[24] = Aspergillus fumigatus IAM 2034, YMA pH 7.0, 28° C., 40 hours, read-out: MIC
[25] = Table 3, Aspergillus fumigatus IAM 2034, YMA, read-out: MIC Af-3

SMILES: COc1cc(O)c2c(c1)C(=O)c1c(cc3c(c1O)-c1c(cc(C)c(C(=O)N[C@H](C)C(=O)O)c1O)[C@H](O[C@@H]1O[C@H](C)[C@H](NC#N)[C@H](O[C@@H]4OC[C@@H](O)[C@H](O)[C@H]4O)[C@H]1O)[C@H]3O)C2=O [KHM-2, 4'-N-Cyanopradimicin C]
- MIC [1]: 3.1 µg/mL (≈ 3.64 µM)
- responders at 6.3 mg/kg [2]: 20%
- responders at 12.5 mg/kg [2]: 40%
- responders at 25 mg/kg [2]: 80%
- responders at 50 mg/kg [2]: 100%
- ED50 [2]: 13 mg/kg
- MIC [3, 16]: 12.5 µg/mL (≈ 14.7 µM)
- MIC [3, 17]: 12.5 µg/mL (≈ 14.7 µM)
- MIC [4]: 3.1 µg/mL (≈ 3.64 µM)
- MIC [5]: 6.3 µg/mL (≈ 7.4 µM)
- MIC [6, 18]: 1.6 µg/mL (≈ 1.88 µM)
- MIC [6, 19]: 1.6 µg/mL (≈ 1.88 µM)
- responders at 6.3 mg/kg [7, 20]: 0%
- responders at 12.5 mg/kg [7, 20]: 20%
- responders at 25 mg/kg [7, 20]: 40%
- responders at 50 mg/kg [7, 20]: 60%
- ED50 [7, 21]: 27 mg/kg
- solubility [8]: > 20 mg/mL
- MIC [9]: 12.5 µg/mL (≈ 14.7 µM)
- MIC [10]: 12.5 µg/mL (≈ 14.7 µM)
- MIC [11]: 3.1 µg/mL (≈ 3.64 µM)
- MIC [12]: 1.6 µg/mL (≈ 1.88 µM)
- MIC [13]: 3.1 µg/mL (≈ 3.64 µM)
- MIC [14, 22]: 3.1 µg/mL (≈ 3.64 µM)
- MIC [14, 23]: 3.1 µg/mL (≈ 3.64 µM)
- MIC [15, 24]: 3.1 µg/mL (≈ 3.64 µM)
- MIC [15, 25]: 3.1 µg/mL (≈ 3.64 µM)

SMILES: COc1cc(O)c2c(c1)C(=O)c1c(cc3c(c1O)-c1c(cc(C)c(C(=O)N[C@H](CO)C(=O)O)c1O)[C@H](O[C@@H]1O[C@H](C)[C@H](NC#N)[C@H](O[C@@H]4OC[C@@H](O)[C@H](O)[C@H]4O)[C@H]1O)[C@H]3O)C2=O [KHM-4, 4'-N-Cyanopradimicin FA2]
- MIC [1]: 3.1 µg/mL (≈ 3.57 µM)
- responders at 6.3 mg/kg [2]: 0%
- responders at 12.5 mg/kg [2]: 20%
- responders at 25 mg/kg [2]: 60%
- responders at 50 mg/kg [2]: 80%
- ED50 [2]: 20 mg/kg
- MIC [3, 16]: 12.5 µg/mL (≈ 14.4 µM)
- MIC [3, 17]: 12.5 µg/mL (≈ 14.4 µM)
- MIC [4]: 6.3 µg/mL (≈ 7.26 µM)
- MIC [5]: 6.3 µg/mL (≈ 7.26 µM)
- MIC [6, 18]: 3.1 µg/mL (≈ 3.57 µM)
- MIC [6, 19]: 3.1 µg/mL (≈ 3.57 µM)
- responders at 6.3 mg/kg [7, 20]: 0%
- responders at 12.5 mg/kg [7, 20]: 0%
- responders at 25 mg/kg [7, 20]: 0%
- responders at 50 mg/kg [7, 20]: 0%
- ED50 [7, 21]: > 50 mg/kg
- ED50 ([7]; Table 3, Aspergillus fumigatus IAM 2034, iv, read-out: PD50 (mice) Af-3): > 50 mg/kg
- solubility [8]: > 20 mg/mL
- MIC [9]: 12.5 µg/mL (≈ 14.4 µM)
- MIC [10]: 12.5 µg/mL (≈ 14.4 µM)
- MIC [11]: 3.1 µg/mL (≈ 3.57 µM)
- MIC [12]: 3.1 µg/mL (≈ 3.57 µM)
- MIC [13]: 6.3 µg/mL (≈ 7.26 µM)
- MIC [14, 22]: 6.3 µg/mL (≈ 7.26 µM)
- MIC [14, 23]: 6.3 µg/mL (≈ 7.26 µM)
- MIC [15, 24]: 6.3 µg/mL (≈ 7.26 µM)
- MIC [15, 25]: 6.3 µg/mL (≈ 7.26 µM)
